From ChEMBL document CHEMBL1147791, “Polyamines and the NMDA receptor: modifying intrinsic activities with aromatic substituents” (Bioorg Med Chem Lett, 2006)

Experiments:
Format in all cases: protein-complex assay
Glutamate NMDA receptor [1] = assay: Inhibition of [3H]MK-801 binding to rat NMDA receptor
[2] = target: T1, Glutamate NMDA receptor (Rattus norvegicus) (UniProt P35439+Q00959+Q00960+Q00961+Q62645+Q8VHN2+Q9R1M7); assay: Attenuation at rat NMDA receptor assessed as ratio of inhibition of [3H]MK-801 binding to NMDA receptor in presence to absence of spermine
[3] = target: T1, Glutamate NMDA receptor (Rattus norvegicus); assay: (§1) Stimulation of [3H]MK-801 binding to rat NMDA receptor
Glutamate NMDA receptor [4] = assay: as §1

IC50 (Glutamate NMDA receptor [1])	Ratio IC50 [2]	Activity [3]	EC50 (Glutamate NMDA receptor [4])	SMILES
> 300 µM	–	–	–	NCCCCN(CCCN)CCCc1ccccc1
4.37 µM	2.2	–	–	c1ccc2c(CNCCCCNCCCNCc3cccc4ccccc34)cccc2c1
103 µM	> 10	–	–	O=C(Cc1ccccc1)NCCCNCCCCNCCCNC(=O)Cc1ccccc1
6.12 µM	2.27	–	–	c1ccc(CNCCCNCCCCNCCCNCc2ccccc2)cc1
9.1 µM	2.2	–	–	NCCCN(CCCCN(CCCN)Cc1ccc2ccccc2c1)Cc1ccc2ccccc2c1
3.9 µM	1.58	–	–	c1ccc(CCCN(CCCNCCCCNCCCN(CCCc2ccccc2)CCCc2ccccc2)CCCc2ccccc2)cc1
44.6 µM	0.48	–	–	CC(C)NCCCN(CCCCN(CCCNC(C)C)Cc1ccc2ccccc2c1)Cc1ccc2ccccc2c1
13 µM	1.5	–	–	N=C(N)NCCCN(CCCCN(CCCN)CCCc1ccccc1)CCCc1ccccc1
6.2 µM	5.9	–	–	c1ccc(CNCCCCNCCCNCc2ccccc2)cc1
13.1 µM	1.44	–	–	NCCCN(CCCCN(CCCNCCCc1ccccc1)CCCc1ccccc1)CCCc1ccccc1
6680 µM	5.3	–	–	CC(C)(C)OC(=O)N(CCCN)CCCCN(CCCN)C(=O)OC(C)(C)C
25.6 µM	1.43	–	–	NCCCNCCCCNCCCNCCCc1ccccc1
182 µM	0.93	26%	1.8 µM	NCCCNCCCCN(CCCN)CCCc1ccccc1
4.7 µM	2.84	–	–	c1ccc2cc(CNCCCNCCCCNCCCNCc3ccc4ccccc4c3)ccc2c1
14 µM	1.96	–	–	CC(C)NCCCN(CCCCN(CCCN)Cc1ccc2ccccc2c1)Cc1ccc2ccccc2c1
9.8 µM	13.1	–	–	NCCCCN(CCCN)Cc1ccc2ccccc2c1
> 300 µM	–	28%	2.7 µM	NCCCNCCCCN(CCCN)Cc1ccccc1

IC50 (Glutamate NMDA receptor [1])	Ratio IC50 [2]	Activity [3]	EC50 (Glutamate NMDA receptor [4])	SMILES
11.2 µM	0.63	–	–	N=C(N)NCCCN(CCCCN(CCCNC(=N)N)CCCc1ccccc1)CCCc1ccccc1
56 µM	> 10	–	–	O=C(NCCCCNCCCNC(=O)OCc1ccccc1)OCc1ccccc1
> 300 µM	–	–	–	CC(C)(C)OC(=O)N(CCCN)CCCCN
82 µM	> 10	–	–	NCCCCN(CCCN)C(=O)c1ccccc1
58 µM	1.45	–	–	NCCCNCCCCN(CCCN)Cc1ccc2ccccc2c1
7.4 µM	0.92	–	–	c1ccc(CCCNCCCNCCCCNCCCNCCCc2ccccc2)cc1
14.2 µM	5.1	–	–	NCCCCN(CCCN)C1c2ccccc2CCc2ccccc21
14.3 µM	1.66	–	–	c1ccc2cc(CN(CCCCNCCCN(Cc3ccc4ccccc4c3)Cc3cccc4ccccc34)Cc3cccc4ccccc34)ccc2c1
17.2 µM	4.7	–	–	NCCCN(CCCCN(CCCN)C(=O)OCc1ccccc1)C(=O)OCc1ccccc1
8.7 µM	1.32	–	–	c1ccc2cc(CN(CCCNCCCCNCCCN(Cc3ccc4ccccc4c3)Cc3ccc4ccccc4c3)Cc3ccc4ccccc4c3)ccc2c1
9.5 µM	2.03	–	–	c1ccc(CCCNCCCCN(CCCNCCCc2ccccc2)CCCc2ccccc2)cc1
26.7 µM	2.6	–	–	NCCCN(CCCCN(CCCN)CCCc1ccccc1)CCCc1ccccc1
> 300 µM	–	–	–	O=C(NCCCCNCCCNC(=O)c1ccccc1)c1ccccc1
> 300 µM	–	–	–	NCCCCN(CCCN)Cc1ccccc1
8.4 µM	1.49	–	–	c1ccc(CCCNCCCN(CCCCN(CCCNCCCc2ccccc2)CCCc2ccccc2)CCCc2ccccc2)cc1
38 µM	4.3	–	–	NCCCN(CCCCN(CCCN)Cc1ccccc1)Cc1ccccc1
17.6 µM	67	–	–	NCCCCN(CCCN)C(=O)OCc1ccccc1
